“Also recorded” adds a separate entry of the source. Ends that are not written are not given here.
Experiments:
pharate pupae = experiment: Injection into pharate pupae: induction of pre-ecdysis and ecdysis; type: in vivo, Manduca sexta; details: 400 pmol to 1 nmol
Description: (§1) Natural ecdysis in pharate 5th instar larvae is preceded by a well-defined pre-ecdysis behavior, characterized by dorso-ventral contractions that occur synchronously in abdominal and thoracic segments (Copenhaver and Truman, 1982; Truman and Weeks, 1983, 1985). Contractions, visible as a dimpling of the dorso-lateral body wall, begin in the most posterior segment, and gradually spread anteriorly. Pre-ecdysis behavior typically lasts 60 to 80 min, and is followed by ecdysis behavior, which lasts about 10 min. Ecdysis behavior is characterized by a distinctly different motor pattern consisting of peristaltic waves of contractions, which originate in the most posterior segment and move anteriorly (Weeks and Truman, 1984). Using a pressure transducer to record changes in internal pressure, in vivo measurements of pre-ecdysis and ecdysis contraction patterns were obtained in pharate 5th instar larvae and pharate pupae. Internal hydrostatic pressure was measured in pharate 5th instar larvae and pharate pupae of Manduca sexta with a Gould-Statham P23-ID pressure transducer. The transducer was connected to a saline-filled tube which in turn was attached to the posterior dorsal horn of pharate 5th instar larvae and pharate pupae with low melting point dental wax.
Pharate pupae responded to injections (400 pmol to 1 nmol) (FIG. 2B; n=12) up to 48 hours prior to natural ecdysis. […]

[1] = system: isolated nerve cords lacking the tracheal system; experiment: Pre-ecdysis and ecdysis motor patterns in isolated nerve cords lacking the tracheal system; type: cell-based, Manduca sexta; details: absence of the tracheal system
Description: (§2) The entire central nervous system or a chain of abdominal ganglia dissected from pharate fifth instar larvae or pharate pupae were placed in a 300 ml Sylgard bath and bathed in modified Weever's saline. Motor output was recorded extracellularly from dorsal roots of abdominal ganglia A5, A6, and A7 using polyethylene suction electrodes. Potentials were amplified with Grass P-15 AC amplifiers, captured on video tape, and played back on a Gould Brush pen recorder. To record natural pre-ecdysis and ecdtysis, the nervous system was removed after initiation of the behavior.
The tracheal system was removed in all studies. The pattern of pre-eccdysisin isolated pharate 5th instar CNS under natural conditions was quite similar to that elicited by application of 100 nM Mas-ETH. To observe natural pre-ecdysis and ecdysis motor patterns, animals were observed until initiation of pre-ecdysis, at which time nerve cords were quickly removed and prepared for suction electrode recordings. In both instances, pre-ecdysis bursts occurred synchronously in the dorsal nerves of A5-A7 every 10 to 12 seconds with a duration of 5 to 10 sec. Similarly, the burst pattern driving ecdysis in pharate larvae under natural conditions was similar to that resulting from exposure to 1 mM Mas-ETH. Ecdysis bursts occurred every 20 to 30 seconds and were about 20 sec in duration, with an intersegmental delay of about 5 sec. […]

[2] = system: isolated central nervous system of pharate 5th instar larvae; experiment: Motor burst patterns of isolated central nervous system of pharate 5th instar larvae, bath application; type: cell-based, Manduca sexta
Description: as §2
For studies involving bath application of synthetic MasETH, pharate 5th instar nerve cords were dissected at -8 hr prior to ecdysis, using liquid-Lilled head and brown mandibles as morphological markers. Pharate pupae were dissected at 8 hours prior to natural ecdysis using brown bars as the morphological marker.
The tracheal system was removed in all studies. The pattern of pre-eccdysisin isolated pharate 5th instar CNS under natural conditions was quite similar to that elicited by application of 100 nM Mas-ETH. To observe natural pre-ecdysis and ecdysis motor patterns, animals were observed until initiation of pre-ecdysis, at which time nerve cords were quickly removed and prepared for suction electrode recordings. In both instances, pre-ecdysis bursts occurred synchronously in the dorsal nerves of A5-A7 every 10 to 12 seconds with a duration of 5 to 10 sec. Similarly, the burst pattern driving ecdysis in pharate larvae under natural conditions was similar to that resulting from exposure to 1 mM Mas-ETH. Ecdysis bursts occurred every 20 to 30 seconds and were about 20 sec in duration, with an intersegmental delay of about 5 sec. Burst durations and intervals between bursts became longer as the behavior progressed, which corresponded to observations of natural behavior patterns. Optimal Mas-ETH concentrations for triggering pre-ecdysis were lower than those necessary for ecdysis.

pharate adults = experiment: Injection into pharate adults: induction of ecdysis (eclosion); type: in vivo, Manduca sexta
Description: Pharate pupae responded to injections (400 pmol to 1 nmol) (FIG. 2B; n=12) up to 48 hours prior to natural ecdysis. […] Ecdysis followed after a period of 50 to 90 min. Pharate adults responded to Mas-ETH injections (1 to 2 nmol) up to 24 hours prior to natural ecdysis (n=10). Rotatory movements of the abdomen began within 3 to 10 min of injection and were followed by a period of relative quiescence.

[3] = system: pharate fourth instar Manduca sexta larvae; experiment: Injection into pharate fourth instar larvae (liquid-filled head capsule stage), carboxy-terminus study; details: in vivo
Description: The amidated and acid form of the 26 mer of SEQ ID NO:3 was prepared using a solid state synthesizer. This procedure is the same as that described at example 7. The amidated and acid forms of ETH used in the present study were synthesized by Research Genetics Corporation using these standard protocols (5 mg. each of the amidated-ETH and the acid-ETH).

[4] = system: pharate 5th instar larvae; experiment: Injection into pharate 5th instar larvae: induction of pre-ecdysis and ecdysis behavior; type: in vivo, Manduca sexta; details: for biological activity of additional EG peptides: initial RPLC data on EG
Description: A peptide with ecdysis-triggering activity was also purified from an extract of 50 pharate pupal EG with reversed-phase liquid chromatography (RPLC) (FIG. 1A) . For HPLC fractionation, freshly-dissected EG were homogenized in acidic methanol (MeOH: H2 O:acetic acid, 90:9:1) and the supernatant was evaporated to dryness. Crude extracts of EG were fractionated with a Microsorb C4 column (wide pore 300 A, 4.6 mm/25 cm), with a linearly increasing gradient of acetonitrile (3 to 53% in 90 min) in constant 0.1% TFA/water using a flow rate of 1 ml/min. Fractions were collected based on UV absorbance (220 nm) and vacuum centrifuged to dryness. Individual fractions were re-suspended in physiological saline and injected into pharate fifth instar Manduca sexta larvae. Induction of preecdysis behavior, visible as synchronous dorso-ventral contractions in body segments, were scored as positive responses.
as §1
During natural pre-ecdysis in the larva, dorso-ventral contractions typically occur every 10 to 12 seconds with a duration of 5 to 7 seconds (FIG. 2A). When pharate larvae were injected with Mas-ETH (20 pmol to 1 nmol), pre-ecdysis began within 2 to 10 min, and the pattern was indistinguishable from that observed under natural conditions (n=13). The pre-ecdysis induced by Mas-ETH injection lasted 35 to 65 min, and was followed by ecdysis (FIG. 2A).
At about 36 hours preceding natural ecdysis in pharate 5th instar larvae, the first signs of apolysis can be observed as an accumulation of molting fluid in the prothorax. About two hours later, head capsule slip occurs (Curtis et al., 1984). Premature ecdysis behavior induced by Mas-ETH injection (34-10 hours prior to natural ecdysis) lasted from 10 to 45 min. […] Mas-ETH triggered successful ecdysis only after the old cuticle is sufficiently digested, some 6 to 8 hr before normal ecdysis. Sensitivity to ETH, therefore, is shown to exist during the pharate stage.
The ETH-PRP1 peptide was dissolved into physiological saline and injected into pharate fifth instar Manduca sexta larvae. A dose range of 50 pmol to 5 nmol was tested.

[5] = system: pharate 5th instar larvae; experiment: as above; type: in vivo, Manduca sexta; details: injected into insect larvae
[6] = Physiological actions of ETH-PRP2 (no method described)
larval insects = experiment: Injection of synthetic Bom-ETH forms into larval insects; type: in vivo, Bombyx mori; details: free acid at doses much higher than the amidated form
Description: Synthetic Bom-ETH was prepared according to standard solid phase peptide synthesis methods by Research Genetics, Inc. (Birmingham, AL) to provide a peptide having the amino acid sequence of the 23 mer. Both the amidated and free --COOH terminal forms were prepared.

CCOc1ccc2nc(S(N)(=O)=O)sc2c1 [Mas-ETH]
pre-ecdysis by blood pressure measurements (pharate pupae; earlier stages of development): clear rhythm within minutes | time prior to natural ecdysis at which pharate pupae respond to injection (pharate pupae; n=12): up to 48 hours | pre-ecdysis and ecdysis motor patterns of isolated CNS [1]: elicited motor burst patterns; also recorded: can generate pre-ecdysis and ecdysis motor patterns | pre-ecdysis and ecdysis motor patterns of isolated CNS ([1]; listed as ETH): responds to ETH; also recorded: responded; also recorded: not required | interval of pre-ecdysis bursts (every) ([2]; 100 nM, dorsal nerves of A5-A7): 10 to 15 s | pre-ecdysis burst duration ([2]; 100 nM, dorsal nerves of A5-A7): 5 to 7 s | ecdysis burst duration ([2]; 1 mM Mas-ETH): about 20 sec | intersegmental delay of ecdysis bursts ([2]; 1 mM Mas-ETH): about 5 sec | time prior to natural ecdysis at which pharate adults respond to injection (pharate adults; 1 to 2 nmol, n=10): up to 24 hours | condition of emerged adults (pharate adults; emerged before resorption of molting fluid): could not inflate their wings | dose causing preecdysis followed by ecdysis [3]: ≤ 1 pmol | behavior exhibited after injection ([4]; injected at head capsule slip, 34 hours prior to normal ecdysis): both pre-ecdysis and ecdysis motor patterns | outcome of premature ecdysis behavior ([4]; injection 34-10 hours prior to natural ecdysis): ecdysis could not be completed | time prior to normal ecdysis at which larvae respond to injection ([4]; pre-ecdysis behavior, n=7): up to 36 hours

ETH-PRP1: 47-mer peptide, Asn 66 to Met 112 of the ETH precursor, SEQ ID NO:14, chemically synthesized (NYDSENRFDIPKLYPWRAENTELYEDDAQPTNGEEINGFYGKQRENM)
cardioactivity [5]: causes cardioacceleration | ecdysis behavior ([4]; dose range 50 pmol to 5 nmol): did not elicit ecdysis behavior | latency from injection to preecdysis behavior ([4]; dose range 50 pmol to 5 nmol): 15 to 20 min | pre-ecdysis stimulating activity ([4]; in vivo): pre-ecdysis stimulating activity | biological activity of additional EG peptides [4]: ETH-like biological activity

ETH-PRP2: 15-mer peptide deduced from the ETH precursor, Gln 20 to Val 34, SEQ ID NO:13 (QVESSFIKPNNVPRV)
cardioacceleration [6]: acts as a cardioaccelerator | effect on physiological actions of Mas-ETH [6]: increasing its ecdysis triggering activity | biological activity of additional EG peptides [4]: ETH-like biological activity

SNEAFDEDVMGYVIKSNKNIPRM (not fully specified (C-terminus)) [Bom-ETH amidated form]
biological activity upon injection (larval insects): biologically active
